Key:
human ARL-2 protein = biological target: T1, human ARL-2 protein (Homo sapiens, UniProt C9JRZ8); experiment: Standard ARL-2 enzyme assay (NADPH A340 decrease); type: biochemical; conditions: sodium-phosphate buffer pH 6.3, 0.2 mmol NADPH, 28° C.
T1 construct: For the expression of the ARL-2 protein, the coding area was amplified by means of the polymerase chain reaction; His-tag; made in house; host or cells: E. coli (pQE30) or insect cells (baculovirus pBlueBac4.5/V5-His-TOPO)
From the text: For the expression of the ARL-2 protein, the coding area was amplified by means of the polymerase chain reaction (for reaction conditions, see Example 2) (primer for the N-terminal area: 5′ ATGGCCACGTTTGTGGAGCTC 3′; primer for the C-terminal area: 5′ ATATTCTGCATCGAAGGGAAA 3′), and inserted in the baculovirus expression vector pBlueBac4.5/V5-His-TOPO (Invitrogen) or the eukaryotic expression vector pcDNA3.1/V5/His-TOPO (Invitrogen). For the expression of the ARL-2 protein in E. coli, the coding area was amplified by means of a polymerase chain reaction (for reaction conditions, see Example 2) (primer for the N-terminal area: 5′ CGGGATCCGCCACGTTTGTGGAGCTC 3′; primer for the C-terminal area: 5′ CCCAAGCTTTCAATATTCTGCATCGAAGGGAAA 3′) and inserted in the procaryotic expression vector pQE30 (Quiagen). To simplify detection and purification, a fusion with an His-tag was carried out. […]
A standard ARL-2 enzyme assay was performed as follows: The standard enzyme reaction batch contained 135 mmol of sodium-phosphate buffer (pH 6.3), 0.2 mmol of NADPH and measured substrate and enzyme concentrations. The enzyme reaction was carried out at 28° C., and the substrate conversion was determined by spectrometry via the reduction of A340 of the NADPH. […] Controls without substrate and without enzyme were measured with respect to the standard. […]

[1] = test system: endothelial cell cultures; conditions: Herbst et al., 1997; cited from earlier work
neuronal cell cultures = conditions: Kruman et al., 1997; Malecki et al., 2000; cited from earlier work
[2] = test system: adrenocorticotrophic carcinoma cell line Y1; experiment: Test system for apoptosis-inducing substances, annexin-V staining in Y1 cells; type: cell-based, mouse; conditions: concentration of 10 μM; 12 hours incubation
Description: In this test system, substances can be examined with respect to their apoptosis-inducing action. The adrenocorticotrophic carcinoma cell line Y1 was used as a cell system. Cell cultures of this mouse cell line were treated for 12 hours with different substances before the rate of apoptosis in the cells was determined. […] Y1 cells/ml were resuspended in DME/F12 (+10% FCS) and treated with the substances to be tested. After 12 hours of incubation time, the apoptosis rate was determined in the Y1 cells using annexin-V-alexa 468 staining (Roche) in combination with DNA staining (Hoechst-33258, Molecular Probes) according to manufacturer's information.

T1 sequence (C9JRZ8 whole entry): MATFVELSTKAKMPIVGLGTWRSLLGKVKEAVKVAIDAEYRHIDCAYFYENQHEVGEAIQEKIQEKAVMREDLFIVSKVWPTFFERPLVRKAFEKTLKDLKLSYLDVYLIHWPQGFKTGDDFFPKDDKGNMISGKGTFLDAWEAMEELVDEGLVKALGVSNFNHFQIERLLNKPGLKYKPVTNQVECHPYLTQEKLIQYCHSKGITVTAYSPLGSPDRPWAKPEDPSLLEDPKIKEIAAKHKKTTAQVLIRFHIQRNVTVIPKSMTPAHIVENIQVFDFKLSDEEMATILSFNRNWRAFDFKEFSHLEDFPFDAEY

Compound | substrate of the aldo-keto-reductase ARL-2 (human ARL-2 protein) | induction of apoptosis in endothelial cell cultures [1] | induction of apoptosis in neuronal cell cultures (neuronal cell cultures) | induction of apoptosis in the Y1 cell line [2]
CC(C)CCC=O [isocaproaldehyde] | preferred substrates | – | – | –
CCCCCC(O)/C=C/C=O (centres unmarked) [4-hydroxynonenal] | preferred substrates | induces apoptosis | induces apoptosis | can induce apoptosis

Reference: patent publication US20030148337A1, “ARL-2 for birth control” (Schering AG, priority 2001, published 2003)
